Data on three compounds can be found in US8735446B2, “Vanillin acetals and sensory stimulant composition containing the same” (Takasago International Corporation, priority 2005, dated 2014).

The structures appear in SMILES notation.

One test deals with ten expert panelists. Description: Sensory Evaluation 1: oral evaluation of 10 ppm aqueous solutions. It counts as in vivo, human. The note with it: for Instantaneous sensation / Intensity: oral evaluation, 10 ppm aqueous solution, warming sensation and pungent taste, average of ten panelists; for Intensity: scale 5 very strong, 4 strong, 3 weak, 2 very weak, 1 not able to feel. Also on record: key to Instantaneous sensation: ⊚: very fast; ◯: fast; Δ: is somewhat slow; x: slow. The procedure: Compound A and Compound C obtained in Example 1 and Example 3, respectively, were subjected to oral evaluation using 10 ppm aqueous solutions of them by ten expert panelists having 5 or more year experience, and an instantaneous sensation and an intensity of warming sensation and pungent taste were evaluated on the basis of the following evaluation criteria. On the sensory evaluation, 4-(l-methoxymethyl)-2-(3′-methoxy-4′-hydroxyphenyl)-1,3-dioxolan (Comparative compound A: the compound described in JP-A-8-225564) was used as a comparative compound. The evaluation results in the table show the average value of ten panelists.

For a further test, the system named is skin. Description: warm sensation and stimulating effect on the skin. It counts as in vivo, human.

Turning to `CCCCC1COC(c2ccc(O)c(OC)c2)O1` (stereo not drawn) [Compound A, vanillin-1,2-hexylene glycol acetal], in the test with ten expert panelists, the “pungent and warming effect in the mouth” value was “strong pungent and warming effect in the mouth”; the Instantaneous sensation entry is recorded as “⊚”; the Intensity worked out at 4.5. Also, the “warm sensation and stimulating effect on the skin” value in the test on skin is “strong warm sensation and stimulating effect on the skin”.
As to `CCCCOCC1COC(c2ccc(O)c(OC)c2)O1` (stereo not drawn) [Compound C, vanillin-1-butoxyglycerol acetal], in the test with ten expert panelists, the “pungent and warming effect in the mouth” value was “strong pungent and warming effect in the mouth”; the Instantaneous sensation result is “⊚”; the Intensity is reported as 4.2. For the same compound, the “warm sensation and stimulating effect on the skin” value in the test on skin is “strong warm sensation and stimulating effect on the skin”.
As to `COCC1COC(c2ccc(O)c(OC)c2)O1` (stereo not drawn) [Comparative compound A, 4-(l-methoxymethyl)-2-(3′-methoxy-4′-hydroxyphenyl)-1,3-dioxolan, reference compound], in the test with ten expert panelists, the “pungent and warming effect in the mouth” value was “strong pungent and warming effect in the mouth”; the Instantaneous sensation result is given as “Δ”; the Intensity is 2.8. Besides, the “warm sensation and stimulating effect on the skin” value in the test on skin is “strong warm sensation and stimulating effect on the skin”.
